{
  "source": "patent US20070280919A1",
  "about": "“Produce-treatment composition and method for treatment of fresh produce” (priority 2006, published 2007)",
  "tested_on": "green mold (P. digitatum)",
  "experiment": "In vivo efficacy test on inoculated fruit, green mold incidence (FIG. 1)",
  "parameters": "species or system Penicillium digitatum",
  "settings": "fruit puncture-inoculated with P. digitatum, imazalil at 0.1%",
  "procedure": "In vivo efficacy tests for the formulation of Table 7 were carried out on Fallglo tangerines, pineapples, and Valencia oranges inoculated with Penicillium digtatum using a puncture method, in which the fruit was punctured with the tip of a 1 mm×1 mm probe that had been dipped into the inoculum solution (1×10^6 fungal spores/ml). The fruit was then subject to either a dip treatment procedure or a packingline dip treatment procedure twenty to twenty-four hours after inoculation. The dip treatment procedure involved dipping the inoculated fruit into the composition for one (1) minute. The packingline dip treatment procedure involved treating the fruit with suspensions or wax containing the produce-treatment composition using a non-recovery drip system through a simulated commercial packing line. Fruits were rotated on brush beds and contacted with chemicals for 15 to 20 seconds, and then dried at 50-54° C. for 1-2 minutes. In both procedures, the treated fruit was incubated at 21° C. with 95% relative humidity. FIG. 1 depicts a bar graph reporting the efficacy of the produce-treatment composition of Table 7 to green mold (P. digitatum), and comparing the results to those of a control (distilled water) and 0.1% imazalil. The inventive formulation reduced green-mold incidences to […], relative to untreated produce. […]",
  "data": [
    {"smiles": "C=CCOC(Cn1ccnc1)c1ccc(Cl)cc1Cl", "note": "(centres unmarked) [imazalil]", "values": [
      {"measurement": "green-mold incidences", "setting": "treated 20-24 h later, incubated at 21° C., 95% RH", "result": 51, "unit": "%"},
      {"measurement": "reduction of green-mold incidences", "setting": "relative to untreated produce", "result": 49, "unit": "%"}
    ]}
  ]
}
